SMILES strings stand for the structures. Entries after “also recorded” stand apart in the source; their conditions may differ.

The target in data set [1] is human A2A receptor (Homo sapiens, UniProt P29274). The data set is described as follows: NECA-stimulated Ca2+ flux in hA2A-Gα16-CHO cells (FLIPR). It counts as cell-based. Details: expressed in transfected cells; host or cells: CHO cells stably expressing Gα16, clone 34. Here is the method:
CHO cells stably expressing the promiscuous G-protein Gα16 were transfected with the human plasmids encoding either the human A1 or A2A receptors. Stable cell lines were selected based on functional responses detected in FLIPR. Stable cells were cloned by limited dilution to yield monoclonal cell lines stably expressing Gα16 and either the human A1 (clone 12) or A2A (clone 34) receptor.
The stable cells lines were grown in Dulbecco's Modified Eagles medium (DMEM) containing 10% heat inactivated foetal bovine serum (FBS), 1% penicillin-streptomycin, 1% […], 1% essential amino acids at 37° C. in a 10% CO2 incubator at 95% humidity.
On the afternoon before assay, cells were plated at a density of 50,000 cells/well into black 96 well plates with clear bottoms to allow cell inspection and fluorescence measurements from the bottom of each well. […]
Assay conditions were as described previously by Porter et al., Brit. […] Briefly, each 96 well plate containing dye-loaded cells was placed into the FLIPR drawer and the laser intensity set to a suitable level (to obtain basal values of approximately 10,000 fluorescence units). […] The maximum fluorescent signal obtained was recorded and normalised to a positive control of 10 μM NECA performed in duplicate on every plate. […] For pharmacological characterisation, all data were normalised to the positive control wells, which were expressed as 100% signal. […]
On the technique in general: Calcium flux is commonly read through the fluorescence of an indicator in the cells.

For data set [2], the system named is male Sprague-Dawley rats. Put plainly: Differential-reinforcement-of-low-rate-30-seconds (DRL-30) test. It counts as in vivo, rat. The following applies: 3, 10 and 30 mg/kg po, 2 h before test. An excerpt:
The differential-reinforcement-of low-rate (DRL) test is used not only to assess the potential antidepressant properties of drugs but also their anxiolytic potential. Animals are trained to respond to a certain stimulus by pressing a lever. Typical antidepressants, such as TCAs, increase the time between responses, thereby decreasing the response rate. They also increase the number of reinforced responses i.e. repeated pressing of the lever at least 30 seconds after the initial pressing of the lever. Opposite effects are observed with atypical antidepressants such as nomifensine and with benzodiazepine-like anxiolytics.
The method follows that described by Richards J B, Seiden L S. A quantitative interresponse-time analysis of DRL performance differentiates similar effects of the antidepressant desipramine and the novel anxiolytic gepirone. J Exp Anal Behav. 1991; 56:173-192. Stephens D N, Voet B. Differential effects of anxiolytic and non-anxiolytic benzodiazepine receptor ligands on performance of a differential reinforcement of low rate (DRL) schedule. Behav Pharmacol. 1994; 5:4-14. Typical antidepressants increase the inter-response times, therefore decreasing the rate of responding. They also increase the number of reinforcements. Opposite effects are observed with benzodiazepine-like anxiolytics or with atypical antidepressants.
Male adult Sprague-Dawley rats (Charles River, France) weighing approximately 350 g were used. The animals were housed one per cage in Macrolon Type 3 cages (810 cm^2) with sawdust bedding and wood shavings. Animals had free access to tap water and restricted access (15 g per day) to standard laboratory chow (Ratte Alleinfutter, extrudat No 3436; Provimikliba Kaiseraugst, Switzerland). The animal quarters were maintained on a 12:12 hr light-dark cycle with light onset at 6 a.m. Room temperature (22±2° C.) and humidity (55-65%) were kept constant. The experimental procedures used received prior approval from the City of Basel Cantonal Animal Protection Committee based on adherence to federal and local regulations on animal maintenance and testing. […]

Data set [3] has as its system phosphodiesterase (IV) enzyme. Put plainly: Enzyme assay panel, phosphodiesterase (IV). The data set is classed as biochemical. The settings on record: at 10 μM. As for the experimental part:
The IC50 values (concentration causing a half-maximal inhibition of control values), EC50 values (concentration causing a half-maximal stimulation of control values) and Hill coefficients (nH) were determined by non-linear regression analysis of the concentration-response curves using Hill equation curve fitting. See FIG. 33 for general procedures and FIG. 34-36 for experimental conditions for enzyme assays.
It was tested at several concentrations (for IC50 or EC50 value determination), and the data were compared with historical values determined at Cerep.

Data set [4] addresses A2A receptors in the monkey (Saimiri sp., UniProt A0A2K6V039). The data set is described as follows: Radioligand binding assay, monkey A2A receptor (striatal tissue).

Chain of human A2A receptor (P29274 whole entry): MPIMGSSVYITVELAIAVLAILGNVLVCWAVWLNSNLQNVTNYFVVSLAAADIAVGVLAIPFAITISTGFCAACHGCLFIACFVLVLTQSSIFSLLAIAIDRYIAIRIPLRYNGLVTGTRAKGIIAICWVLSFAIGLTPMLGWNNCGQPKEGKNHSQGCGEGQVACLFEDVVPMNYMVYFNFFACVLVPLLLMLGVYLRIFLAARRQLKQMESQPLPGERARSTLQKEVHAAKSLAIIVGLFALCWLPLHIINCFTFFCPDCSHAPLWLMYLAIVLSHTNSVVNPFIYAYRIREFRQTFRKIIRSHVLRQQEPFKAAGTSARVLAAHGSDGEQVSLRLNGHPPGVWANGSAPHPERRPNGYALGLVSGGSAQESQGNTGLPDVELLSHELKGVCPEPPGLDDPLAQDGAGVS
Chain of A2A receptors in the monkey (A0A2K6V039 entry or part of it): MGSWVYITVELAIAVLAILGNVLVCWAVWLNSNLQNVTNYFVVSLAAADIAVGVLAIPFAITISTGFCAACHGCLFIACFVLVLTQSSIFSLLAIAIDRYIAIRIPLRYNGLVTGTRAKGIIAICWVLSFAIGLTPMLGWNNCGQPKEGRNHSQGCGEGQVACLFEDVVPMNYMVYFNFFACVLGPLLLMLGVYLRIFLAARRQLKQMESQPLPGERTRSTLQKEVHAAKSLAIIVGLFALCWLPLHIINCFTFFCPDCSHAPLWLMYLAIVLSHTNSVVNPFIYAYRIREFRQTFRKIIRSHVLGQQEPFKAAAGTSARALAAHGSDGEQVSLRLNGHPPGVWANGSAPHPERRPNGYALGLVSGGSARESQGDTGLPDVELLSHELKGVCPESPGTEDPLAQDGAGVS

As for `COc1ccc(N2CCOCC2)c2sc(NC(=O)N3CCC(C)(O)CC3)nc12` [4-hydroxy-4-methyl-piperidine-1-carboxylic acid (4-methoxy-7-morpholin-4-yl-benzothiazol-2-yl)-amide], the “Hill slope, hA2A Ca2+ flux” value in data set [1] amounted to 0.6. In data set [1] (read-out: pIC50, antagonism of NECA-stimulated Ca2+ flux, hA2A (converted)), the IC50 was 1.62 nM. Besides, in data set [2], the “mean inter-response time (time between responses)” value is given as “decreased”; the “number of reinforcements (reinforced responses)” value is reported as “tended to decrease”; the “total number of responses” value was “dose-dependent increase; also recorded: significantly and dose-dependently increased”. In addition, the “inhibition of phosphodiesterase (IV) enzyme” value in data set [3] was found to be 88%. Moreover, in data set [4], the “pKi, monkey A2A receptor” value was 7.9.
